Reference: patent US10533992B2, “Method for screening for sunlight protection functional material and method for evaluating sunlight protection effect” (AMOREPACIFIC CORPORATION, priority 2015, dated 2020)

Key:
[1] = system: HBD-1, HBD-2, HBD-3, LL-37, psoriasin, dermcidin, and RNase 7; experiment: AMP expression (Q-RT-PCR) in keratinocytes treated with Poly I:C and the scavengers PTIO or NAC, with or without blue/violet light; assay type: cell-based, human
Protocol: (§1) First, according to a commercially secured and recommended method, the human epidermal neonatal keratinocytes used in the present invention were purchased from Lonza, Inc. (Walkersville, Md., US), subcultured, and then cultured in a CO2 incubator under the conditions of 37° C. and 5% CO2. The culture medium was prepared according to the guideline provided by Lonza, Inc. KGM-2 Bullet kit: BPE (Bovine pituitary extract) 2 ml, hEGF (human epidermal growth factor) 0.5 ml, insulin 0.5 ml, hydrocortisone 0.5 ml, transferrin 0.5 ml, epinephrine 0.5 ml, and gentamycin sulfate+amphotericin-B(GA-1000) 0.5 ml were added to 500 ml of KBM-2 (Clonetics CC-3103) medium.
(§2) Subsequently, blue/violet light of a wavelength from 400 to 500 nm was radiated to the medium in which human epidermal neonatal keratinocytes is cultured (10 J/cm^2). […]
(§3) Then, the separated RNA was once again purified by using an RNA kit (QIAGEN RNeasy kt, QIAGEN, Valencia, Calif.), and then the quality of the RNA was examined by using Agilent 2100 BioAnalyzer (Agilent Technologies, Santa Clara, Calif., USA). The Superscript Reverse Transcriptase (RT) kit (Invitrogen, Carlsbad, Calif.) was used to synthesize cDNA from the RNA, and the cDNA was quantitatively analyzed through a real time-reverse transcription polymerase chain reaction (Q-RT-PCR). […]

[2] = system: HBD-1, HBD-2, HBD-3, LL-37, psoriasin, dermcidin, and RNase7; experiment: AMP expression (Q-RT-PCR) in keratinocytes treated with Poly I:C and flagellin, with or without blue/violet light; assay type: cell-based; details: human epidermal neonatal keratinocytes; Poly I:C and flagellin treatment; FIGS. 3a to 3g
Protocol: as §1, §2, §3

CC1(C)N([O])C(c2ccc(C(=O)[O-])cc2)=[N+]([O-])C1(C)C.[K+] [PTIO, 2-(4-Carboxyphenyl)-4,4,5,5-tetramethylimidazoline-1-oxyl-3-oxide potassium salt]
expression level of the AMPs on blue/violet light radiation ([1]; Poly I:C treated keratinocytes, blue/violet light 10 J/cm^2, scavenger treated group): not reduced

Poly I:C
expression level of HBD-1, HBD-2, HBD-3, LL-37, psoriasin, dermcidin, and RNase7 [2]: increased
expression level of HBD-1, HBD-2, HBD-3, LL-37, psoriasin, dermcidin, and RNase7 ([1]; human epidermal neonatal keratinocytes, Poly I:C treatment, FIGS. 4a to 4g): increased

flagellin
expression level of HBD-1, HBD-2, HBD-3, LL-37, psoriasin, dermcidin, and RNase7 [2]: increased
